Experiment: xn = mol fraction of the nth substance listed
Details: 101 kPa, Liquid, Vibrating tube method

N#Cc1ccccc1 [benzonitrile] + CCCCCCCC
mass density [kg/m3]
Details | 283.15 K | 288.15 K | 293.15 K | 298.15 K | 303.15 K | 308.15 K | 313.15 K | 318.15 K
x1 = 0.022 | 714.94 | 710.93 | 706.9 | 702.86 | 698.79 | 694.71 | 690.6 | 686.47
x1 = 0.0576 | 721.95 | 717.92 | 713.87 | 709.81 | 705.72 | 701.62 | 697.49 | 693.34
x1 = 0.102 | 731.07 | 727.01 | 722.94 | 718.85 | 714.74 | 710.61 | 706.47 | 702.29
x1 = 0.1999 | 752.43 | 748.32 | 744.2 | 740.06 | 735.9 | 731.73 | 727.54 | 723.33
x1 = 0.2998 | 776.16 | 772.01 | 767.84 | 763.66 | 759.46 | 755.25 | 751.02 | 746.78
x1 = 0.4001 | 802.02 | 797.83 | 793.63 | 789.41 | 785.18 | 780.93 | 776.67 | 772.39
x1 = 0.4637 | 819.57 | 815.35 | 811.12 | 806.89 | 802.63 | 798.37 | 794.09 | 789.79
x1 = 0.4997 | 829.9 | 825.68 | 821.44 | 817.19 | 812.93 | 808.65 | 804.35 | 800.04
x1 = 0.5004 | 830.12 | 825.9 | 821.66 | 817.41 | 813.14 | 808.86 | 804.56 | 800.25
x1 = 0.6001 | 860.7 | 856.42 | 852.14 | 847.85 | 843.55 | 839.23 | 834.9 | 830.56
x1 = 0.7001 | 894.21 | 889.88 | 885.55 | 881.22 | 876.87 | 872.51 | 868.15 | 863.78
x1 = 0.7998 | 930.65 | 926.27 | 921.9 | 917.52 | 913.13 | 908.74 | 904.34 | 899.94
x1 = 0.9001 | 970.69 | 966.28 | 961.87 | 957.46 | 953.05 | 948.63 | 944.21 | 939.78
x1 = 0.95 | 991.86 | 987.44 | 983.01 | 978.59 | 974.17 | 969.74 | 965.31 | 960.88
x1 = 0.9801 | 1005.05 | 1000.62 | 996.19 | 991.77 | 987.34 | 982.91 | 978.48 | 974.05
x1 = 1 | 1013.99 | 1009.55 | 1005.12 | 1000.69 | 996.26 | 991.83 | 987.4 | 982.96

N#Cc1ccccc1 [benzonitrile] + CCCCCCCCC
mass density [kg/m3]
Details | 285.15 K | 288.15 K | 293.15 K | 298.15 K | 303.15 K | 308.15 K | 313.15 K
x1 = 0.0239 | 728.45 | 726.13 | 722.24 | 718.34 | 714.42 | 710.49 | 706.54
x1 = 0.0499 | 732.81 | 730.47 | 726.57 | 722.65 | 718.72 | 714.77 | 710.81
x1 = 0.0989 | 741.4 | 739.05 | 735.11 | 731.16 | 727.2 | 723.22 | 719.23
x1 = 0.1985 | 760.34 | 757.95 | 753.95 | 749.94 | 745.93 | 741.89 | 737.84
x1 = 0.2542 | 771.77 | 769.36 | 765.34 | 761.3 | 757.25 | 753.19 | 749.11
x1 = 0.2998 | 781.58 | 779.16 | 775.11 | 771.05 | 766.97 | 762.89 | 758.79
x1 = 0.4005 | 804.92 | 802.47 | 798.37 | 794.26 | 790.14 | 786 | 781.85
x1 = 0.4966 | 829.64 | 827.16 | 823.01 | 818.85 | 814.68 | 810.5 | 806.31
x1 = 0.5998 | 859.12 | 856.6 | 852.4 | 848.19 | 843.96 | 839.73 | 835.48
x1 = 0.6996 | 891.01 | 888.45 | 884.18 | 879.91 | 875.63 | 871.34 | 867.05
x1 = 0.7999 | 926.93 | 924.34 | 920 | 915.67 | 911.33 | 906.99 | 902.64
x1 = 0.9001 | 967.24 | 964.61 | 960.22 | 955.83 | 951.44 | 947.05 | 942.65
x1 = 0.9497 | 988.96 | 986.32 | 981.91 | 977.49 | 973.08 | 968.67 | 964.25
x1 = 0.9805 | 1003.05 | 1000.4 | 995.97 | 991.55 | 987.13 | 982.7 | 978.27
x1 = 1 | 1012.21 | 1009.55 | 1005.12 | 1000.69 | 996.26 | 991.83 | 987.4

— the NIST ThermoML archive (doi:10.1021/je100145f)
